Measured values published in PubChem BioAssay AID2060510 (Molecular Pharmacology Branch, DTP, NCI, 2025).
Where “and” joins values, the source holds several entries; their conditions need not be identical. Identical values can stand only once.

Tested on: 439559-082-T-J2-PDC spheroids viability
Assay: Anticancer human tumor 439559-082-T-J2-PDC patient-derived colon adenocarcinoma cell line growth inhibition [GQUAD]
Conditions: for viability, T/C: stronger effect = lower value
Text: DNA G-quadruplex Stabilizer Agents in Combinations in Complex Spheroids
A high-throughput screen of multi-cell type tumor spheroids was designed to identify active combinations of DNA G-quadruplex stabilizer agents and targeted small molecules. Complex spheroids include a stromal component modeled by human endothelial cells (HUVEC) and fibroblasts modeled by human mesenchymal stem cells (MSCs). The concentration ranges selected for each drug and investigational agent were based upon clinically achievable concentrations if the clinical Cmax of the agent was known.
Compounds. The drugs and investigational agents: pidnarulex (CX-5461; NSC782164), APTO-253 (NSC789042), BRACO-19 (NSC847499), peposertib (NSC802822), ceralasertib (NSC780249), elimusertib (NSC800525), camonsertib (NSC841442), AZD-1390 (NSC803789), olaparib (NSC753686), talazoparib (NSC767125), ART-558 (NSC835418), sotorasib (NSC818433), MRTX-1133 (NSC836407), SN-38 (NSC673596), topotecan (NSC609699), etoposide (NSC141540), doxorubicin (NSC123127), gemcitabine (NSC613327), 5-fluorouracil (NSC19893), paclitaxel (NSC125973), vemurafenib (NSC761431), panobinostat (NSC761190), R-306465 (JNJ-16241199; NSC773264), adavosertib (NSC754352), TP-3654 (NSC805149), carboplatin (NSC241240), KSQ-4279 (NSC840948), and staurosporine (NSC755774) were obtained from the National Cancer Institute (NCI) Developmental Therapeutics Program Chemical Repository (34). The FDA-approved anticancer drug set is available from the NCI Developmental Therapeutics Program. […] The stock solutions were prepared in dimethyl sulfoxide (DMSO, Sigma-Aldrich, St. Louis, MO, cat. D2650) at 800-fold the tested concentration and stored at -70 degrees C prior to their use. All drugs and investigational agents were tested over a range starting from a high concentration at or near the clinical Cmax and decreasing in half-log increments. If the clinical Cmax for an agent had not been determined, the highest concentration tested was 10 microM.
2.3 Cell Culture. All cells were maintained in an incubator at 37 degrees C and 5% CO2 with 95% humidity. The PDC lines were cultured according to standard operating procedures established by the NCI PDMR. All PDCs were thawed and cultured in Matrigel-coated flasks prepared with a working solution of 1X Ham's F-12 nutrient mix, without supplementation (Invitrogen, cat. 11765054), 100 U/mL penicillin-streptomycin (Invitrogen, cat. 15140122), and 2.5% Matrigel (Corning Inc., cat. 354248) for the first three passages. The 857933-349-R-J2-PDC line was cultured in 6C/Colon 1B media, which includes advanced DMEM/F-12 (Thermo Fisher Scientific, cat. 12634028), 10 mM HEPES (Thermo Fisher Scientific, cat. 15630080), 1X GlutaMAX supplement (Thermo Fisher Scientific, cat. 35050061), 0.1 mg/mL primocin (InvivoGen, cat. ant-pm-2), 10% defined fetal bovine serum, heat inactivated (HyClone Laboratories Inc., cat. SH30070.03HI), 50% L-WRN conditioned media (ATCC, cat. CRL-3276), 1.25 mM N-Acetyl-L-cysteine (Sigma-Aldrich, cat. A9165), 10 mM nicotinamide (Sigma-Aldrich, cat. N0636), 1X B-27 supplement (Thermo Fisher Scientific, cat. 17504044), 1X N-2 supplement (Thermo Fisher Scientific, cat. 17502048), 10 microM Y-27632 dihydrochloride (Tocris Bioscience, cat. 1254), and 50 ng/mL human EGF recombinant protein (Thermo Fisher Scientific, cat. PHG0311). The 485176-168-R4-J1-PDC line was cultured in Panc media, which includes all 6C/Colon 1B media components plus 100 ng/mL human FGF-10 (Thermo Fisher Scientific, cat. 100-26), 500 nM SB-431542 (Selleckchem, cat. S1067), and gastrin (Tocris, cat. 3006).
[…]

[1] = compound alone, run of 04/16/2024
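Note: spheroids exposed to the agents for 7 days before readout.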
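Throughout, for viability, T/C: percent of luminescence signal in DMSO vehicle wells taken as 100% viability.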

COc1cc(C2c3cc4c(cc3C(OC3OC5COC(C)OC5C(O)C3O)C3COC(=O)C23)OCO4)cc(OC)c1O (centres undefined)
viability, T/C (compound 0.0316 µM): 96.1% and 96% and 96.2% | viability, T/C (compound 0.1 µM): 93% and 81.9% and 90.7% | viability, T/C (compound 0.316 µM): 92.8% and 94.6% and 101% | viability, T/C (compound 1 µM): 98.3% and 89.7% and 95% | viability, T/C (compound 3.16 µM): 90.2% and 80.1% and 81.5% | viability, T/C (compound 10 µM): 62.3% and 61% and 68.8% | IC50 (curve of compound): > 10 µM

COc1ccc([C@@H](O)c2cc(-c3ncnc4cc(N5CCOCC5)ccc34)c(F)cc2Cl)nn1
viability, T/C (compound 0.0316 µM): 101% and 95.3% and 86.2% | viability, T/C (compound 0.1 µM): 85.9% and 92.8% and 85% | viability, T/C (compound 0.316 µM): 94.8% and 100% and 84.1% | viability, T/C (compound 1 µM): 98.8% and 88.3% and 102% | viability, T/C (compound 3.16 µM): 86.5% and 77.7% and 79.9% | viability, T/C (compound 10 µM): 91.6% and 78% and 75.7% | IC50 (curve of compound): > 10 µM

COc1cccc2c1C(=O)c1c(O)c3c(c(O)c1C2=O)CC(O)(C(=O)CO)CC3OC1CC(N)C(O)C(C)O1 (centres undefined)
viability, T/C (compound 0.0316 µM): 95.9% and 97.8% and 102% | viability, T/C (compound 0.1 µM): 95.7% and 105% and 90.6% | viability, T/C (compound 0.316 µM): 88.5% and 84.1% and 81.5% | viability, T/C (compound 1 µM): 78.7% and 80.2% and 79.4% | viability, T/C (compound 3.16 µM): 61.8% and 57.9% and 63.3% | viability, T/C (compound 10 µM): 51.2% and 41.3% and 43.4% | IC50 (curve of compound): > 10 µM and 5.6 µM and 7.09 µM

COc1ncnc(C2CC2)c1-c1ncc2cnn(Cc3ccc(-c4nc(C(F)(F)F)cn4C(C)C)cc3)c2n1
viability, T/C (compound 0.0316 µM): 100% and 106% and 101% | viability, T/C (compound 0.1 µM): 101% and 109% and 97.2% | viability, T/C (compound 0.316 µM): 100% and 90.9% and 94.3% | viability, T/C (compound 1 µM): 104% and 89% and 94.3% | viability, T/C (compound 3.16 µM): 98.7% and 81.9% and 104% | viability, T/C (compound 10 µM): 98.1% and 57.4% and 89.5% | IC50 (curve of compound): > 10 µM

Cc1[nH]c2ccc(F)cc2c1-c1nc2c3cccnc3c3ncccc3c2[nH]1
viability, T/C (compound 0.0316 µM): 103% [middle of 12 runs] | viability, T/C (compound 0.1 µM): 102% [middle of 12 runs] | viability, T/C (compound 0.316 µM): 100% [middle of 12 runs] | viability, T/C (compound 1 µM): 94.9% [middle of 12 runs] | viability, T/C (compound 3.16 µM): 86.4% [middle of 12 runs] | viability, T/C (compound 10 µM): 89.3% [middle of 12 runs] | IC50 [1]: > 10 µM | IC50 (compound alone, run of 04/22/2024): > 10 µM

Cc1[nH]c2ccccc2c1CCNCc1ccc(/C=C/C(=O)NO)cc1
viability, T/C (compound 0.000999 µM): 105% and 91.6% and 99.8% | viability, T/C (compound 0.00316 µM): 94.6% and 105% and 93.3% | viability, T/C (compound 0.00999 µM): 91.2% and 92.3% and 95.4% | viability, T/C (compound 0.0316 µM): 112% and 84.7% and 91.9% | viability, T/C (compound 0.0999 µM): 110% and 81.7% and 79% | viability, T/C (compound 0.316 µM): 101% and 63.2% and 61.6% | IC50 (curve of compound): > 0.316 µM

Cc1cccc(N(C)C(=O)C2C(O)CCN2c2nc(C)cc(C(F)(F)F)c2C#N)c1 (centres undefined)
viability, T/C (compound 0.0316 µM): 93.8% and 107% and 103% | viability, T/C (compound 0.1 µM): 105% and 93.7% and 99.7% | viability, T/C (compound 0.316 µM): 106% and 102% and 85.8% | viability, T/C (compound 1 µM): 109% and 97.2% and 108% | viability, T/C (compound 3.16 µM): 116% and 104% and 109% | viability, T/C (compound 10 µM): 88.7% and 92.6% and 98.5% | IC50 (curve of compound): > 10 µM

Cc1cnc(CNC(=O)c2c(=O)c3ccc(N4CCCN(C)CC4)nc3n3c2sc2ccccc23)cn1
viability, T/C (compound 0.0316 µM): 98.7% [middle of 12 runs] | viability, T/C (compound 0.1 µM): 93% [middle of 12 runs] | viability, T/C (compound 0.316 µM): 88.6% [middle of 12 runs] | viability, T/C (compound 1 µM): 81.6% [middle of 12 runs] | viability, T/C (compound 3.16 µM): 75.7% [middle of 12 runs] | viability, T/C (compound 10 µM): 75.7% [middle of 12 runs] | IC50 [1]: > 10 µM

Cn1ncnc1[C@H]1c2n[nH]c(=O)c3cc(F)cc(c23)N[C@@H]1c1ccc(F)cc1
viability, T/C (compound 0.000999 µM): 92.5% and 104% and 94.8% | viability, T/C (compound 0.00316 µM): 84.5% and 91.5% and 115% | viability, T/C (compound 0.00999 µM): 84.5% and 99.1% and 95.4% | viability, T/C (compound 0.0316 µM): 87.8% and 102% (2×) | viability, T/C (compound 0.0999 µM): 94.9% and 96.3% and 91.8% | viability, T/C (compound 0.316 µM): 91.2% and 91.9% and 86.3% | IC50 (curve of compound): > 0.316 µM

Nc1ccn(C2OC(CO)C(O)C2(F)F)c(=O)n1 (centres undefined)
viability, T/C (compound 0.0316 µM): 83.6% and 83.2% and 89.5% | viability, T/C (compound 0.1 µM): 74.3% and 67.4% and 60.4% | viability, T/C (compound 0.316 µM): 53.7% and 46.2% and 49.7% | viability, T/C (compound 1 µM): 38.5% and 30.7% and 32.6% | viability, T/C (compound 3.16 µM): 28.2% and 25.8% and 28.4% | viability, T/C (compound 10 µM): 22.9% and 26.9% and 23.2% | IC50 (curve of compound): 0.444 µM and 0.249 µM and 0.24 µM

O=C(NO)c1cnc(N2CCN(S(=O)(=O)c3ccc4ccccc4c3)CC2)nc1
viability, T/C (compound 0.0316 µM): 84.3% and 92.9% and 85.8% | viability, T/C (compound 0.1 µM): 81.2% and 79.9% and 84.2% | viability, T/C (compound 0.316 µM): 84% and 62.6% and 64.7% | IC50 (curve of compound): 1.76 µM and 0.401 µM and 0.438 µM

O=C(c1cc(Cc2n[nH]c(=O)c3ccccc23)ccc1F)N1CCN(C(=O)C2CC2)CC1
viability, T/C (compound 0.0316 µM): 90.9% and 100% and 96.4% | viability, T/C (compound 0.1 µM): 103% and 97.7% and 97.9% | viability, T/C (compound 0.316 µM): 94.8% and 86.2% and 99.2% | viability, T/C (compound 1 µM): 98.9% and 98.6% and 98.4% | viability, T/C (compound 3.16 µM): 123% and 104% and 94.1% | viability, T/C (compound 10 µM): 91.1% and 89.6% and 94.1% | IC50 (curve of compound): > 10 µM

O=c1[nH]cc(F)c(=O)[nH]1
viability, T/C (compound 0.0316 µM): 93.1% and 96.1% and 94.6% | viability, T/C (compound 0.1 µM): 103% and 102% and 97.4% | viability, T/C (compound 0.316 µM): 85.9% and 79.7% and 88.7% | viability, T/C (compound 1 µM): 76.7% and 78.2% and 78.6% | viability, T/C (compound 3.16 µM): 79.4% and 74.2% and 76.8% | viability, T/C (compound 10 µM): 71.5% and 77.1% and 70.3% | IC50 (curve of compound): > 10 µM
